Results published in US20250127803A1, “2'-FUCOSYLLACTOSE AND LACTO-N-NEOTETRAOSE FOR PREVENTING AND TREATING OVERWEIGHT” (HEALTH AND HAPPINESS (H&H) HONG KONG LTD, priority 2022, published 2025).
Where “and” joins values, the source holds several entries; their conditions need not be identical. Equal entries are not always repeated.

Test system: C. elegans
Assay: Fat-reducing effect on C. elegans (Nile red lipid staining, fluorescence)
Assay type: in vivo
Conditions: for Fat Reduction (%) vs. Control: vs NG medium; for effectiveness in reducing the lipid level relative to Orlistat as reference: specific concentrations, summary statement
Protocol: Plates with a diameter of 100×15 mm have been filled with NGM (Nematode Growth Medium, as standard, hereafter NG medium (Fisher Scientific). Nile red (Sigma, St. Louis, MO, USA) was added to the solid surface of the NGM plates seeded at a final concentration of 0.05 μg/mL
For each of the experiments 2 NG medium plates were used, which had been supplemented with 2′-fucosyllactose in different amounts each, i.e. […] As negative control two plates with NG medium were used. As positive control two NG medium plates with Orlistat® were used.
60 synchronized worms at young adult stage were added to each plate with Escherichia coli strain OP50 as a food source and cultured under aerobic conditions at 20° C.
All worms were subjected to a lipid staining method, following the protocol previously described (Martorell et al., 2016).
All nematodes from each plate were transferred to M9 buffer and the fluorescence was measured using a FP-8300 system (JASCO Analytical Instrument, Easton, MD, USA). Fat deposition in worms was determined by one-way ANOVA test, using a Tukey's multiple comparison post-test.
Results are given as the mean±standard deviation. The statistical analyses were performed with GraphPad Prism 9 software. Statistical significance is indicated at 5%. […]

Compound: 2′-fucosyllactose [2′-FL]
- Fat Reduction (%) vs. Control (0.01 mg/L in NG medium): −2.38%
- Fat Reduction (%) vs. Control (0.1 mg/L in NG medium): 11.37%
- Fat Reduction (%) vs. Control (1 mg/L in NG medium): 23.61%
- fat reduction compared to negative control conditions (NG medium) (1 mg/mL): 23.6%
- effectiveness relative to the positive control orlistat (1 mg/ml): about 78%
- Fat Reduction (%) vs. Control (10 mg/L in NG medium): 25.35%
- fat reduction compared to negative control conditions (NG medium) (10 mg/mL): 25.3%
- effectiveness relative to the positive control orlistat (10 mg/ml): ~83%
- Fat Reduction (%) vs. Control (30 mg/L in NG medium): 5.28%
- effectiveness in reducing the lipid level relative to Orlistat as reference: 70-90%
- effect on fat content in nematodes (the lower and higher doses): no functional effect

Compound: CC(=O)N[C@H]1[C@H](O[C@H]2[C@@H](O)[C@@H](CO)O[C@@H](O[C@H]3[C@H](O)[C@@H](O)C(O)O[C@@H]3CO)[C@@H]2O)O[C@H](CO)[C@@H](O[C@@H]2O[C@H](CO)[C@H](O)[C@H](O)[C@H]2O)[C@@H]1O (mixture of isomers) [LNnT, Lacto-N-neotetraose]
- Fat Reduction (%) vs. Control (0.01 mg/L in NG medium): −5.01%
- Fat Reduction (%) vs. Control (0.1 mg/L in NG medium): −0.08%
- Fat Reduction (%) vs. Control (1 mg/L in NG medium): 3.08%
- Fat Reduction (%) vs. Control (10 mg/L in NG medium): 14.05%
- fat reduction compared to negative control conditions (NG medium) (10 mg/mL): 14.05%
- effectiveness relative to the positive control orlistat (10 mg/ml): about 45%
- Fat Reduction (%) vs. Control (30 mg/L in NG medium): −2.39%
- effectiveness in reducing the lipid level relative to Orlistat as reference: 40-60%

Compound: CCCCCCCCCCC[C@@H](C[C@@H]1OC(=O)[C@H]1CCCCCC)OC(=O)[C@H](CC(C)C)NC=O [Orlistat, (25)-2-Formylamino-4-methylpentansäure-(1S)-1-{[(35,4S)-3-hexyl-2-oxo-4-oxetanyl]methyl}dodecylester, reference compound]
- Fat Reduction (%) vs. Control (6 μg/mL in NG medium, positive control): 31.14% and 30.40%
- Fat Reduction (%) vs. Control (6 μg/mL in NG medium, positive control, listed as Orlistate): 31.14%
- Fat Reduction (%) vs. Control (6 μg/mL in NG medium, positive control, listed as orlistat): 30.4%
